Tested on: Trypanosoma brucei brucei bloodstream form (BSF) parasites (cell line 90-13, a 427 strain)
Assay: Parasite viability assay (CellTiter Blue), bloodstream form African trypanosomes
Type: cell-based
Conditions: for % BSF Growth Inhibition @ 10 μM: 10 μM compound, 48 hours; for EC50: 48 hours at 37° C., averages of triplicates
Procedure: To determine the impact of diazacyclobutene derivatives on the growth of African trypanosomes (Trypanosoma brucei brucei) as a representative parasite, bloodstream form (BSF) parasites (cell line 90-13, a 427 strain at 1×10^5 cell/mL) were seeded into 384-well black plates in 40 μL HMI-9 supplemented with 10% fetal bovine serum and 10% Serum Plus (Sigma-Aldrich, St. Louis Mo.) in the presence of compound or equivalently diluted carrier. After 48 hours at 37° C. in 5% CO2, CellTiter Blue (8 μL, Promega, Madison Wis.) was added and the plates incubated an additional 3 hours. Fluorescence emission at A585 was then measured after excitation at A546 on a Synergy H1 Hybrid Reader (Biotek, Winooski Vt.). Averages of triplicates were calculated and fit to dose-response curves using Prism (Graphpad, San Diego Calif.) for the determination of EC50 values.

Structure (SMILES) | % BSF Growth Inhibition @ 10 μM | EC50
CSc1c(-c2ccccc2)n2c(=O)n(-c3ccccc3)c(=O)n12 [Compound 1] | 35.6 ± 1.9% | > 10 µM
CCSc1c(-c2ccccc2)n2c(=O)n(-c3ccccc3)c(=O)n12 [Compound 2] | 23.4 ± 5.7% | > 10 µM
CCCSc1c(-c2ccccc2)n2c(=O)n(-c3ccccc3)c(=O)n12 [Compound 3] | 96.6 ± 0.3% | 5.83 ± 2.2 µM
CCCCSc1c(-c2ccccc2)n2c(=O)n(-c3ccccc3)c(=O)n12 [Compound 4] | 80.5 ± 2.1% | > 5 µM
CCCCCSc1c(-c2ccccc2)n2c(=O)n(-c3ccccc3)c(=O)n12 [Compound 5] | 98.21 ± 0.17% | 2.65 ± 0.16 µM
CCCCCCCCSc1c(-c2ccccc2)n2c(=O)n(-c3ccccc3)c(=O)n12 [Compound 6] | 94.71 ± 3.48% | 2.04 ± 0.21 µM
O=c1n(-c2ccccc2)c(=O)n2c(-c3ccccc3)c(SCc3ccccc3)n12 [Compound 7] | 98.87 ± 2.68% | 0.386 ± 0.034 µM
O=c1n(-c2ccccc2)c(=O)n2c(-c3ccccc3)c(Sc3ccccc3)n12 [Compound 8] | 11.5 ± 7% | > 10 µM
CSc1c(-c2ccc(C)cc2)n2c(=O)n(-c3ccccc3)c(=O)n12 [Compound 9] | – | > 10 µM
CCSc1c(-c2ccc(C)cc2)n2c(=O)n(-c3ccccc3)c(=O)n12 [Compound 10] | 95.2 ± 3.5% | 3.66 ± 1.7 µM
COc1ccc(-c2c(SC)n3c(=O)n(-c4ccccc4)c(=O)n23)cc1 [Compound 11] | 77.1 ± 3.5% | > 5 µM
CSc1c(-c2ccc(Cl)cc2)n2c(=O)n(-c3ccccc3)c(=O)n12 [Compound 12] | 62.2 ± 2.7% | > 5 µM
CSc1c(-c2ccc(C(F)(F)F)cc2)n2c(=O)n(-c3ccccc3)c(=O)n12 [Compound 13] | 89.6 ± 2.8% | > 2.5 µM
CCCCc1c(SC)n2c(=O)n(-c3ccccc3)c(=O)n12 [Compound 14] | 95.6 ± 1.2% | 0.35 ± 0.04 µM
CCCCSc1c(CCCC)n2c(=O)n(-c3ccccc3)c(=O)n12 [Compound 15] | 59.2 ± 6.6% | –
C[Se]c1c(-c2ccccc2)n2c(=O)n(-c3ccccc3)c(=O)n12 [Compound 17] | 46.1 ± 6.2% | > 10 µM
O=c1n(-c2ccccc2)c(=O)n2c(-c3ccccc3)c([Se]c3ccccc3)n12 [Compound 18] | 84.24 ± 8.21% | –
Cc1ccc(S(=O)(=O)N(C)c2c(-c3ccccc3)n3c(=O)n(-c4ccccc4)c(=O)n23)cc1 [Compound 21] | 2.5 ± 4.3% | > 10 µM
Cc1ccc(S(=O)(=O)N(C)c2c(-c3ccc(C(F)(F)F)cc3)n3c(=O)n(-c4ccccc4)c(=O)n23)cc1 [Compound 22] | 0% | > 10 µM
CSc1c(-c2ccccc2)n2c(=O)n(-c3cccc(Cl)c3)c(=O)n12 [Compound 23] | – | 7.08 ± 1.9 µM
COc1cccc(-n2c(=O)n3c(SC)c(-c4ccccc4)n3c2=O)c1 [Compound 25] | – | > 10 µM
